From patent US20250082640A1, “Therapeutics for Hyponatremia and Polycystic Kidney Disease” (University of Cincinnati, priority 2021, published 2025)

Experiments:
[1] = system: salt transporter NKCC2; conditions: rat kidney medullary thick ascending limb, high dose; cited from earlier work
[2] = system: water channel aquaporin 2 (AQP2); conditions: rat kidney collecting duct system, high dose; cited from earlier work
[3] = system: Male Sprague Dawley rats; assay: Metabolic cage study of rats fed diet containing R2-ADN or adenine (Example 1, Table 1); format: in vivo, rat; conditions: for Urine osmolality, Average Baseline / Urine osmolality, Baseline Day 1 / Urine osmolality, Baseline Day 2: baseline before treatment; for Urine osmolality, Day 1: treatment day 1; for Urine osmolality, Day 2: treatment day 2; for Urine osmolality, Day 3: treatment day 3; for Urine osmolality, Day 4: treatment day 4; for Urine osmolality, Day 5: treatment day 5; for Urine osmolality, Day 6: treatment day 6
Source text: The effects of R2-ADN on these physiologic parameters are dose- and time-dependent.
In addition, the effects of adenine (ADN) were compared to those of R2-ADN on these physiologic parameters.
Male Sprague Dawley rats were placed in metabolic cages and fed powdered rodent chow with access to distilled water ad libitum. After adjustment, baseline data were collected for 2 days and then rats were randomly divided into different groups. […]

[4] = system: Rats; assay: Metabolic cage study of rats fed diet supplemented with R3-AND or R4-AND (Example 2); format: in vivo, rat; conditions: for food intake / water intake / urine volume / urine osmolality: day 4, in diet (R4-ADN at 0.15% weight/weight); for food intake: vs control (FIG. 7A); for water intake: vs control (FIG. 7B); for urine volume: vs control (FIG. 7C); for urine osmolality: vs control (FIG. 7D)
[5] = system: primary human hepatocytes; conditions: in vitro; cited from earlier work
[6] = system: 45 strains of mice; conditions: single oral dose; cited from earlier work
[7] = rats of the 0.15% in diet group
[8] = rats of the 0.20% in diet group
[9] = rats of the 0.25% in diet group
[10] = rats, 0.15% in diet, adenine vs R2-ADN

Nc1ncnc2nc[nH]c12 [ADN, adenine]
NKCC2 gene expression and protein abundance [1]: decreasing the gene expression and protein abundance | AQP2 gene expression and protein abundance [2]: decreasing the gene expression and protein abundance | Urine osmolality, Average Baseline [3, 7]: 1890 mosm/kg H2O | Urine osmolality, Baseline Day 1 [3, 7]: 1848 mosm/kg H2O | Urine osmolality, Baseline Day 2 [3, 7]: 1933 mosm/kg H2O | Urine osmolality, Average Baseline [3, 8]: 1619 mosm/kg H2O | Urine osmolality, Baseline Day 1 [3, 8]: 1638 mosm/kg H2O | Urine osmolality, Baseline Day 2 [3, 8]: 1599 mosm/kg H2O | Urine osmolality, Average Baseline [3, 9]: 1529 mosm/kg H2O | Urine osmolality, Baseline Day 1 [3, 9]: 1648 mosm/kg H2O | Urine osmolality, Baseline Day 2 [3, 9]: 1410 mosm/kg H2O | urine osmolality [3, 10]: no effect | urine volume / daily water balance [3, 10]: no effect | Urine osmolality, Day 1 ([3]; rats, 0.15% in diet): 1750 mosm/kg H2O | Urine osmolality, Day 2 ([3]; rats, 0.15% in diet): 1752 mosm/kg H2O | Urine osmolality, Day 3 ([3]; rats, 0.15% in diet): 1770 mosm/kg H2O | Urine osmolality, Day 4 ([3]; rats, 0.15% in diet): 1671 mosm/kg H2O | Urine osmolality, Day 5 ([3]; rats, 0.15% in diet): 1700 mosm/kg H2O | Urine osmolality, Day 6 ([3]; rats, 0.15% in diet): 1738 mosm/kg H2O | Urine osmolality, Day 1 ([3]; rats, 0.20% in diet): 1475 mosm/kg H2O | Urine osmolality, Day 2 ([3]; rats, 0.20% in diet): 1371 mosm/kg H2O | Urine osmolality, Day 3 ([3]; rats, 0.20% in diet): 1354 mosm/kg H2O | Urine osmolality, Day 4 ([3]; rats, 0.20% in diet): 1296 mosm/kg H2O | Urine osmolality, Day 5 ([3]; rats, 0.20% in diet): 1279 mosm/kg H2O | Urine osmolality, Day 6 ([3]; rats, 0.20% in diet): 1386 mosm/kg H2O | Urine osmolality, Day 1 ([3]; rats, 0.25% in diet): 1198 mosm/kg H2O | Urine osmolality, Day 2 ([3]; rats, 0.25% in diet): 848 mosm/kg H2O | Urine osmolality, Day 3 ([3]; rats, 0.25% in diet): 976 mosm/kg H2O | Urine osmolality, Day 4 ([3]; rats, 0.25% in diet): 1019 mosm/kg H2O | Urine osmolality, Day 5 ([3]; rats, 0.25% in diet): 938 mosm/kg H2O | Urine osmolality, Day 6 ([3]; rats, 0.25% in diet): 956 mosm/kg H2O

Nc1nc(Cl)nc2nc[nH]c12 [R2-ADN, 2-chloro-6-aminopurine]
potency relative to adenine in effects on water handling / water loss by the kidney ([3]; rats): more potent than adenine | Urine osmolality, Average Baseline [3, 7]: 1558 mosm/kg H2O | Urine osmolality, Baseline Day 1 [3, 7]: 1614 mosm/kg H2O | Urine osmolality, Baseline Day 2 [3, 7]: 1502 mosm/kg H2O | water intake ([3]; rats, 0.075%, 0.15% or 0.25% in diet, 7 days, vs baseline and control, dose- and time-dependent (FIGS. 1A-1D)): significant increase | urine volume ([3]; rats, 0.075%, 0.15% or 0.25% in diet, 7 days, vs baseline and control, dose- and time-dependent (FIGS. 2A-2D)): significant increase | urine osmolality ([3]; rats, 0.075%, 0.15% or 0.25% in diet, 7 days, vs baseline or control, dose- and time-dependent (FIGS. 3A-3D)): sharp reduction | urine osmolality [3, 10]: significantly impaired | urine volume / daily water balance [3, 10]: significantly impaired | Urine osmolality, Day 1 ([3]; rats, 0.15% in diet): 1085 mosm/kg H2O | Urine osmolality, Day 2 ([3]; rats, 0.15% in diet): 625 mosm/kg H2O | Urine osmolality, Day 3 ([3]; rats, 0.15% in diet): 720 mosm/kg H2O | Urine osmolality, Day 4 ([3]; rats, 0.15% in diet): 649 mosm/kg H2O | Urine osmolality, Day 5 ([3]; rats, 0.15% in diet): 657 mosm/kg H2O | Urine osmolality, Day 6 ([3]; rats, 0.15% in diet): 508 mosm/kg H2O | reduction in urine osmolality ([3]; rats, 0.15% in diet, within the second day of treatment): ~60% | food intake ([3]; rats, high dose (0.25%), day 7 of feeding): significant reduction | food intake ([3]; rats, lower doses in diet (FIGS. 4A-4D)): did not significantly alter | changes in body weight ([3]; rats, vs control group (FIGS. 5A-5D)): impacted the changes in body weight

O=C(Nc1ncnc2nc[nH]c12)c1ccccc1 [R3-AND, N6-benzoyladenine]
food intake [4]: none of the measured parameters | water intake [4]: none of the measured parameters | urine volume [4]: none of the measured parameters | urine osmolality [4]: none of the measured parameters

CN(C)c1ncnc2nc[nH]c12 [R4-ADN, 6-(Dimethylamino) purine]
potency relative to adenine in increasing water loss by the kidney [4]: more potent than adenine | food intake [4]: significant reduction | water intake [4]: significant increase | urine volume [4]: significant increase | urine osmolality [4]: sharp reduction

Cc1ccccc1C(=O)Nc1ccc(C(=O)N2CCCC(O)c3cc(Cl)ccc32)c(C)c1 (stereo not shown) [tolvaptan]
hepatocyte toxicity [5]: causes mitochondrial-induced apoptosis and oxidative stress | signs of liver injury mechanisms [6]: signs of mitochondrial dysfunction, increased oxidative stress, and activation of immune response
